The values below come from patent US10544140B2, “Pharmaceutical composition containing, as active ingredient, 7-azaindolin-2-one derivative or pharmaceutically acceptable salt thereof” (LG CHEM, LTD., priority 2015, dated 2020).

pIC50: −log10 of the molar value.

Data set [1] deals with MCF-7 (human breast cancer cell line). Briefly: Cytotoxicity test by MTT assay, MCF-7. The note with it: for cytotoxicity at 30 µM / pIC50: Homo sapiens, MCF7; for cytotoxicity at 30 µM: MCF-7, 30 μM, 48 h, read-out: Cell viability (% inhibition); for pIC50: MCF-7, 48 h; for cytotoxicity compared with the reference drug sunitinib: MCF-7. In kind it is cell-based. On the technique in general: Tetrazolium assays rely on reduction of a dye to a coloured formazan, in cell work by metabolically active cells.

The subject of data set [2] is PANC-1 (human pancreatic cancer cell line). Briefly: Cytotoxicity test by MTT assay, PANC-1. In kind it is cell-based. To be noted: for pIC50 / cytotoxicity at 30 µM: Homo sapiens; for pIC50: PANC-1, 48 h; for cytotoxicity at 30 µM: PANC-1, 30 μM, 48 h, read-out: Cell viability (% inhibition).
Data set [3] relates to MDA-MB-231 (breast cancer). Kind of data set: Cytotoxicity test by MTT assay, MDA-MB-231. In kind it is cell-based, human. To be noted: for pIC50: Homo sapiens, MBA-MB-231, 48 h. On the procedure:
(§1) A cytotoxicity test was measured by MTT assay. Each cell line was cultured in a 96-well plate at a density of 1×10^4 cells/well. After 24 hours, the culture medium containing 1% FBS (fetal bovine serum) was treated and reacted with compounds or solutions of compounds for 48 hours. MTT (3-(4,5-dimethylthiazol-2-yl)-2,5-diphenyltetrazolium bromide) solution (5 mg/mL) was added to each well and reacted for 4 hours in an incubator. […] After reacting in an incubator for 30 minutes, the formation of formazan was quantified using a microplate reader at an absorbance of 540 nm. […] The human cancer cell lines used herein are MCF-7 (breast cancer), MDA-MB-231 (breast cancer), HT-29 (colon cancer), DU145 (prostate cancer), U937 (myeloid leukemia), A549 (lung cancer), PANC-1 (pancreatic cancer) and MIA PaCa-2 (pancreatic cancer).

The test system of the next data set is HT-29 (colon cancer). Briefly: Cytotoxicity test by MTT assay, HT-29. Format: cell-based, human. To be noted: for pIC50: Homo sapiens, HT-29, 48 h; for cytotoxicity compared with the reference drug sunitinib: HT-29. Here is the method: as §1
A further data set has as its system DU145 (prostate cancer). Briefly: Cytotoxicity test by MTT assay, DU145. In kind it is cell-based, human. To be noted: DU-145; for pIC50: Homo sapiens, DU145, 48 h. On the procedure: as §1
In the next data set the test system is A549 (lung cancer). Briefly: Cytotoxicity test by MTT assay, A549. Format: cell-based, human. To be noted: for pIC50: Homo sapiens, A549, 48 h; for cytotoxicity compared with the reference drug sunitinib: A-549. Here is the method: as §1
Data set [4] deals with MIA PaCa-2 (pancreatic cancer). Briefly: Cytotoxicity test by MTT assay, MIA PaCa-2. In kind it is cell-based, human. To be noted: for pIC50: Homo sapiens, MIA PaCa-2, 48 h. Here is the method: as §1
A short description of data set [5]: Cytotoxicity test by MTT assay, HEK293 normal cell line. In kind it is cell-based. To be noted: human, HEK293 cells (normal cell line). On the procedure:
(§2) A cytotoxicity test was measured by MTT assay. Each cell line was cultured in a 96-well plate at a density of 1×10^4 cells/well. After 24 hours, the culture medium containing 1% FBS (fetal bovine serum) was treated and reacted with compounds or solutions of compounds for 48 hours. MTT (3-(4,5-dimethylthiazol-2-yl)-2,5-diphenyltetrazolium bromide) solution (5 mg/mL) was added to each well and reacted for 4 hours in an incubator. […] After reacting in an incubator for 30 minutes, the formation of formazan was quantified using a microplate reader at an absorbance of 540 nm.

Data set [6] in a line: Cytotoxicity test by MTT assay, CHO-K1 normal cell line. In kind it is cell-based. The note with it: Chinese hamster, CHO-K1 cells (normal cell line). Here is the method: as §2
The next data set concerns U937 (myeloid leukemia). Briefly: Cytotoxicity test by MTT assay, U937. In kind it is cell-based, human. The note with it: for pIC50: Homo sapiens, U-937, U937, 48 h. Here is the method:
as §1

For the molecule `Cc1nc2c(c(C)c1O)/C(=C/c1ccc(N(C)C)cc1)C(=O)N2` [Compound I-18, (Z)-3-(4-(Dimethylamino)benzylidene)-5-hydroxy-4,6-dimethyl-1H-pyrrolo[2,3-b]pyridin-2(3H)-one], the cytotoxicity at 30 µM amounted to 62.5% in data set [1] and 66.3% in data set [2]. Further, the pIC50 (in general, the negative decadic logarithm of the IC50, by convention in mol/L) is 4.88 in [1]; 4.86 in [2]; 4.92 in [3]; 4.44 with HT-29 (colon cancer); 5.94 in the data set on DU145 (prostate cancer); 4.88 in the data set on A549 (lung cancer). The pIC50 in data set [4] was 4.94. Moreover, the “cytotoxicity compared with the reference drug sunitinib” value (in data set [2] (PANC-1); in the data set on DU145 (prostate cancer)) was “greater than or equal to that of the reference drug sunitinib” each time. Also, the IC50 at 48 h in [5] and in [6] was > 90 µM throughout.

Turning to `Cc1nc2c(c(C)c1O)/C(=C/c1cccnc1)C(=O)N2` [Compound I-22, (Z)-5-Hydroxy-4,6-dimethyl-3-(pyridin-3-ylmethylene)-1H-pyrrolo[2,3-b]pyridin-2(3H)-one], the cytotoxicity at 30 µM in [1] worked out at 78%; in data set [2], 72.7%. The pIC50 was 4.76 in data set [1]; 5.02 in data set [3]; 4.70 in the data set on HT-29 (colon cancer); 5.93 in the data set with DU145 (prostate cancer); 4.84 in the data set on U937 (myeloid leukemia); 4.86 in the data set on A549 (lung cancer). Besides, the “cytotoxicity compared with the reference drug sunitinib” value in the data set with DU145 (prostate cancer) is reported as “greater than or equal to that of the reference drug sunitinib”. Moreover, the values for the IC50 at 48 h in [5] and in [6] were > 90 µM and 78.5 µM, respectively.

Consider `CCN(CC)CCNC(=O)c1c(C)[nH]c(/C=C2\C(=O)Nc3nc(C)c(O)c(C)c32)c1C` [Compound I-39, (Z)—N-(2-(Diethylamino)ethyl)-5-((5-hydroxy-4,6-dimethyl-2-oxo-1H-pyrrolo[2,3-b]pyridin-3(2H)-ylidene)methyl)-2,4-dimethyl-1H-pyrrole-3-carboxamide], for which the cytotoxicity at 30 µM in data set [1] was determined as 62.7%; in data set [2], 69.6%. For the same molecule, the pIC50 in data set [1] was 5.22; in data set [2], 4.82; in data set [3], 5.27; in the data set on HT-29 (colon cancer), 4.68; with DU145 (prostate cancer), 5.54; in the data set with U937 (myeloid leukemia), 5.10. In addition, the figures for the pIC50 (in the data set on A549 (lung cancer); in data set [4]) were 4.70 and 5.10, respectively. Also, the “cytotoxicity compared with the reference drug sunitinib” value (in data set [1]; in data set [2] (PANC-1); in data set [3]; in the data set on DU145 (prostate cancer); in [4] (MIA PaCa-2)) was “greater than or equal to that of the reference drug sunitinib” in each case. For the same molecule, the IC50 (usually the concentration needed to halve the response being measured) at 48 h in data set [5] is 40.7 µM; in [6], > 90 µM.

As for `CCNCCNC(=O)c1c(C)[nH]c(/C=C2\C(=O)Nc3nc(C)c(O)c(C)c32)c1C` [Compound I-40, (Z)—N-(2-(Ethylamino)ethyl)-5-((5-hydroxy-4,6-dimethyl-2-oxo-1H-pyrrolo[2,3-b]pyridin-3(2H)-ylidene)methyl)-2,4-dimethyl-1H-pyrrole-3-carboxamide], the pIC50 in data set [1] is 5.88; in data set [2], 5.99; in data set [3], 5.83; in the data set on HT-29 (colon cancer), 5.84; with DU145 (prostate cancer) it was 6.59; with A549 (lung cancer), 5.83. Further, in [4], the pIC50 was 5.80. Besides, the “cytotoxicity compared with the reference drug sunitinib” value (in data set [1]; in data set [2] (PANC-1); in [3]; in the data set with HT-29 (colon cancer); in the data set with DU145 (prostate cancer); with A549 (lung cancer)) was “greater than or equal to that of the reference drug sunitinib” each time. Also, the “cytotoxicity compared with the reference drug sunitinib” value in data set [4] (MIA PaCa-2) is listed as “greater than or equal to that of the reference drug sunitinib”. In addition, the IC50 at 48 h in data set [5] amounted to 19.1 µM; in [6], 40.7 µM.

`Cc1nc2c(c(C)c1O)/C(=C/c1[nH]c(C)c(C(=O)NC3CCCCC3)c1C)C(=O)N2` [Compound I-41, (Z)—N-Cyclohexyl-5-((5-hydroxy-4,6-dimethyl-2-oxo-1H-pyrrolo[2,3-b]pyridin-3(2H)-ylidene)methyl)-2,4-dimethyl-1H-pyrrole-3-carboxamide]: the figures for the cytotoxicity at 30 µM in [1] and in [2] were 78.1% and 78.3%, respectively. Also, the pIC50 in data set [1] was 5.16; in data set [2] it was 5.23; in data set [3] it was 5.45; in the data set on HT-29 (colon cancer) it was 5.35; in the data set with DU145 (prostate cancer), > 6.00; with U937 (myeloid leukemia), 5.49. Further, the pIC50 in the data set with A549 (lung cancer) was 5.22; in [4], 5.30. In addition, the “cytotoxicity compared with the reference drug sunitinib” value (in [1]; in data set [2] (PANC-1); in data set [3]; with HT-29 (colon cancer); with DU145 (prostate cancer); in the data set with U937 (myeloid leukemia) (U937)) was “greater than or equal to that of the reference drug sunitinib” each time. In addition, the “cytotoxicity compared with the reference drug sunitinib” value (with A549 (lung cancer); in [4] (MIA PaCa-2)) was “greater than or equal to that of the reference drug sunitinib” each time. Moreover, the results for the IC50 at 48 h in data set [5] and in data set [6] were 37.1 µM and 43.4 µM, respectively.

For the molecule `Nc1ccn([C@@H]2O[C@H](CO)[C@@H](O)C2(F)F)c(=O)n1` [Gemcitabine, reference compound], the pIC50 in data set [2] and in [4] was < 3.00 each time. The “resistance of the cell line to the drug” value in data set [2] (PANC-1) and in [4] (MIA PaCa-2) was “resistance to gemcitabine” each time.

As to `CCN(CC)CCNC(=O)c1c(C)[nH]c(/C=C2\C(=O)Nc3ccc(F)cc32)c1C` [Sunitinib, sunitinib, reference compound], the pIC50 in data set [3] is 5.22; in the data set on HT-29 (colon cancer) it was 5.31; in the data set with DU145 (prostate cancer), 5.23; with U937 (myeloid leukemia), 5.16; in the data set with A549 (lung cancer), 5.16; in data set [4], 5.07. For the same molecule, the half-maximal inhibitory concentration (IC50) at 48 h in data set [5] was 7.3 µM.
